The source made the active and inactive calls. The rule behind the calls is not given here.
Test system: CCRIS mutagenicity, Ames/micronucleus/aberration tests
Experiment: CCRIS mutagenicity studies
[1] = Test System: AMES SALMONELLA TYPHIMURIUM, Strain/Indicator: TA98, Metabolic Activation: NONE, Method: PREINCUBATION

SMILES: CC(=O)CC(=O)Nc1ccccc1
- mutagenic call (End Point: In vitro chromosomal aberrations, Test System: Chinese hamster lung (CHL/IU) cells, Metabolic Activation: Rat, Liver, S9, Phenobarbital and 5,6-benzoflavone): inactive; negative
- mutagenic call (Test System: AMES SALMONELLA TYPHIMURIUM, Strain/Indicator: TA97, Metabolic Activation: HAMSTER, LIVER, S-9, AROCLOR 1254 (10%), Method: PREINCUBATION): inactive; negative
- mutagenic call (Test System: AMES SALMONELLA TYPHIMURIUM, Strain/Indicator: TA97, Metabolic Activation: HAMSTER, LIVER, S-9, AROCLOR 1254 (30%), Method: PREINCUBATION): inactive; negative
- mutagenic call (Test System: AMES SALMONELLA TYPHIMURIUM, Strain/Indicator: TA97, Metabolic Activation: NONE, Method: PREINCUBATION): inactive; negative
- mutagenic call (Test System: AMES SALMONELLA TYPHIMURIUM, Strain/Indicator: TA97, Metabolic Activation: RAT, LIVER, S-9, AROCLOR 1254 (10%), Method: PREINCUBATION): inactive; negative
- mutagenic call (Test System: AMES SALMONELLA TYPHIMURIUM, Strain/Indicator: TA97, Metabolic Activation: RAT, LIVER, S-9, AROCLOR 1254 (30%), Method: PREINCUBATION): inactive; negative
- mutagenic call (Test System: AMES SALMONELLA TYPHIMURIUM, Strain/Indicator: TA98, Metabolic Activation: HAMSTER, LIVER, S-9, AROCLOR 1254 (10%), Method: PREINCUBATION): inactive; negative
- mutagenic call (Test System: AMES SALMONELLA TYPHIMURIUM, Strain/Indicator: TA98, Metabolic Activation: HAMSTER, LIVER, S-9, AROCLOR 1254 (30%), Method: PREINCUBATION): inactive; negative
- mutagenic call [1]: inactive; negative
- mutagenic call (Test System: AMES SALMONELLA TYPHIMURIUM, Strain/Indicator: TA98, Metabolic Activation: RAT, LIVER, S-9, AROCLOR 1254 (10%), Method: PREINCUBATION): inactive; negative
- mutagenic call (Test System: AMES SALMONELLA TYPHIMURIUM, Strain/Indicator: TA98, Metabolic Activation: RAT, LIVER, S-9, AROCLOR 1254 (30%), Method: PREINCUBATION): inactive; negative
- mutagenic call (Test System: AMES SALMONELLA TYPHIMURIUM, Strain/Indicator: TA100, Metabolic Activation: HAMSTER, LIVER, S-9, AROCLOR 1254 (10%), Method: PREINCUBATION): inactive; negative
- mutagenic call (Test System: AMES SALMONELLA TYPHIMURIUM, Strain/Indicator: TA100, Metabolic Activation: HAMSTER, LIVER, S-9, AROCLOR 1254 (30%), Method: PREINCUBATION): inactive; negative
- mutagenic call (Test System: AMES SALMONELLA TYPHIMURIUM, Strain/Indicator: TA100, Metabolic Activation: NONE, Method: PREINCUBATION): inactive; negative
- mutagenic call (Test System: AMES SALMONELLA TYPHIMURIUM, Strain/Indicator: TA100, Metabolic Activation: RAT, LIVER, S-9, AROCLOR 1254 (10%), Method: PREINCUBATION): inactive; negative
- mutagenic call (Test System: AMES SALMONELLA TYPHIMURIUM, Strain/Indicator: TA100, Metabolic Activation: RAT, LIVER, S-9, AROCLOR 1254 (30%), Method: PREINCUBATION): inactive; negative
- mutagenic call (Test System: AMES SALMONELLA TYPHIMURIUM, Strain/Indicator: TA1535, Metabolic Activation: HAMSTER, LIVER, S-9, AROCLOR 1254 (10%), Method: PREINCUBATION): inactive; negative
- mutagenic call (Test System: AMES SALMONELLA TYPHIMURIUM, Strain/Indicator: TA1535, Metabolic Activation: HAMSTER, LIVER, S-9, AROCLOR 1254 (30%), Method: PREINCUBATION): inactive; negative
- mutagenic call (Test System: AMES SALMONELLA TYPHIMURIUM, Strain/Indicator: TA1535, Metabolic Activation: NONE, Method: PREINCUBATION): inactive; negative
- mutagenic call (Test System: AMES SALMONELLA TYPHIMURIUM, Strain/Indicator: TA1535, Metabolic Activation: RAT, LIVER, S-9, AROCLOR 1254 (10%), Method: PREINCUBATION): inactive; negative
- mutagenic call (Test System: AMES SALMONELLA TYPHIMURIUM, Strain/Indicator: TA1535, Metabolic Activation: RAT, LIVER, S-9, AROCLOR 1254 (30%), Method: PREINCUBATION): inactive; negative
- mutagenic call (Test System: Ames Salmonella typhimurium, Strain/Indicator: TA98, Metabolic Activation: None, Method: Preincubation): inactive; negative
- mutagenic call (Test System: Ames Salmonella typhimurium, Strain/Indicator: TA98, Metabolic Activation: Rat, Liver, S9, Sodium phenobarbital and 5,6-benzoflavone (10%), Method: Preincubation): inactive; negative
- mutagenic call (Test System: Ames Salmonella typhimurium, Strain/Indicator: TA100, Metabolic Activation: None, Method: Preincubation): inactive; negative
- mutagenic call (Test System: Ames Salmonella typhimurium, Strain/Indicator: TA100, Metabolic Activation: Rat, Liver, S9, Sodium phenobarbital and 5,6-benzoflavone (10%), Method: Preincubation): inactive; negative
- mutagenic call (Test System: Ames Salmonella typhimurium, Strain/Indicator: TA1535, Metabolic Activation: None, Method: Preincubation): inactive; negative
- mutagenic call (Test System: Ames Salmonella typhimurium, Strain/Indicator: TA1535, Metabolic Activation: Rat, Liver, S9, Sodium phenobarbital and 5,6-benzoflavone (10%), Method: Preincubation): inactive; negative
- mutagenic call (Test System: Ames Salmonella typhimurium, Strain/Indicator: TA1537, Metabolic Activation: None, Method: Preincubation): inactive; negative
- mutagenic call (Test System: Ames Salmonella typhimurium, Strain/Indicator: TA1537, Metabolic Activation: Rat, Liver, S9, Sodium phenobarbital and 5,6-benzoflavone (10%), Method: Preincubation): inactive; negative
- mutagenic call (Test System: E. coli, Strain/Indicator: WP2uvrA/pKM101, Metabolic Activation: None, Method: Preincubation): active; positive
- mutagenic call (Test System: E. coli, Strain/Indicator: WP2uvrA/pKM101, Metabolic Activation: Rat, Liver, S9, Sodium phenobarbital and 5,6-benzoflavone (10%), Method: Preincubation): active; positive

SMILES: CC(=O)c1ccc2c(c1)C(=O)C1(CC1)O2
- mutagenic call (Test System: AMES SALMONELLA TYPHIMURIUM, Strain/Indicator: TA98, Metabolic Activation: NONE): inactive; negative
- mutagenic call (Test System: AMES SALMONELLA TYPHIMURIUM, Strain/Indicator: TA98, Metabolic Activation: S-9): inactive; negative
- mutagenic call (Test System: AMES SALMONELLA TYPHIMURIUM, Strain/Indicator: TA100, Metabolic Activation: NONE): inactive; negative
- mutagenic call (Test System: AMES SALMONELLA TYPHIMURIUM, Strain/Indicator: TA100, Metabolic Activation: S-9): inactive; negative
- mutagenic call (Test System: AMES SALMONELLA TYPHIMURIUM, Strain/Indicator: TA1535, Metabolic Activation: NONE): inactive; negative
- mutagenic call (Test System: AMES SALMONELLA TYPHIMURIUM, Strain/Indicator: TA1535, Metabolic Activation: S-9): inactive; negative
- mutagenic call (Test System: AMES SALMONELLA TYPHIMURIUM, Strain/Indicator: TA1537, Metabolic Activation: NONE): inactive; negative
- mutagenic call (Test System: AMES SALMONELLA TYPHIMURIUM, Strain/Indicator: TA1537, Metabolic Activation: S-9): inactive; negative
- mutagenic call (Test System: E. COLI, Strain/Indicator: WP2 (HCR), Metabolic Activation: NONE): inactive; negative
- mutagenic call (Test System: E. COLI, Strain/Indicator: WP2 (HCR), Metabolic Activation: S-9): inactive; negative

SMILES: COc1cccc2c1C(=O)c1c(O)c3c(c(O)c1C2=O)C[C@@](O)(C(=O)CO)C[C@@H]3O[C@H]1C[C@H](N)[C@H](OC)[C@H](C)O1
- mutagenic call (Test System: AMES SALMONELLA TYPHIMURIUM, Strain/Indicator: GW257, Metabolic Activation: NONE, Method: STANDARD PLATE): active; positive
- mutagenic call (Test System: AMES SALMONELLA TYPHIMURIUM, Strain/Indicator: TA97, Metabolic Activation: NONE, Method: STANDARD PLATE): active; positive
- mutagenic call [1]: active; positive
- mutagenic call (Test System: AMES SALMONELLA TYPHIMURIUM, Strain/Indicator: TA98, Metabolic Activation: NONE, Method: STANDARD PLATE): active; positive
- mutagenic call (Test System: AMES SALMONELLA TYPHIMURIUM, Strain/Indicator: TA100, Metabolic Activation: NONE, Method: STANDARD PLATE): active; positive
- mutagenic call (Test System: AMES SALMONELLA TYPHIMURIUM, Strain/Indicator: TA104, Metabolic Activation: NONE, Method: STANDARD PLATE): active; positive
- mutagenic call (Test System: AMES SALMONELLA TYPHIMURIUM, Strain/Indicator: TA1538, Metabolic Activation: NONE, Method: STANDARD PLATE): active; positive
- mutagenic call (Test System: AMES SALMONELLA TYPHIMURIUM, Strain/Indicator: TA2637, Metabolic Activation: NONE, Method: STANDARD PLATE): active; positive
